Assay results published in publication PMC8615109, “Assessment of Micafungin Dosage Regimens in Patients with Cancer Using Pharmacokinetic/Pharmacodynamic Modeling and Monte Carlo Simulation” (Antibiotics, 2021).
Numbered stars: 1 amine (or outer) side, 2 acyl side, 3 side chain; on linkers, the order of the positions; unused ones are H or OH. Bridge positions count the residues as written; N and C are the ends. Square brackets hold non-standard residues; d marks the D form. Peptide text beside a SMILES is read from it. * marks the point of attachment. hTyr(3S-OH,4S-OH,3'-OSO3H) = N[C@H](C(=O)O)[C@H](O)[C@@H](O)c1ccc(O)c(OS(=O)(=O)O)c1; Orn(4R-OH,5R-OH) = O=C([C@H](C[C@@H](O)[C@@H](O)N[*:3])N[*:1])[*:2]; Pro(3S-OH,4S-Me) = C[C@H]1CN[C@H](C(=O)O)[C@H]1O; X1 = CCCCCOc1ccc(-c2cc(-c3ccc(C(=O)*)cc3)no2)cc1; Gln(3R-OH) = NC(=O)C[C@@H](O)[C@H](N)C(=O)O; Hyp = O=C(O)[C@@H]1C[C@@H](O)CN1

Experiments:
clinical = format: in vivo, human (adult patients); conditions: population estimate; for clearance: both sexes, human, in vivo, iv, two-compartment population model (Monolix 4.4), plasma HPLC-UV
Experimental: This was a prospective pharmacokinetic study to compare adult patients with and without cancer. The study was conducted at King Saud University Medical City, a tertiary hospital. The study included male and female patients aged ≥ 18 years, who were admitted to the hospital and received a minimum of 2 micafungin doses based on empirical evidence or culture results. Patients who were pregnant and those with a micafungin allergy were excluded. The study protocol was approved by the Institutional Review Board of King Saud University Medical City (E-18-3373), and written informed consent was obtained from all patients before their inclusion in the study.
All patients were treated with a 100–150 mg daily dose of micafungin for empirical use or confirmed fungal infection. Micafungin was diluted in 100 mL isotonic saline solution and infused over 60 min. Blood samples were drawn at 1, 2, 4, 6, 8, 12, and 24 h from the initiation of the micafungin dose. All blood samples were centrifuged, and plasma samples were stored at −80 °C until analysis.
Plasma micafungin concentrations were determined using a high-performance liquid chromatography (HPLC) method with a UV detection system, with slight modification. Plasma samples were separated from whole blood, acidified with phosphoric acid, precipitated with acetonitrile, and centrifuged prior to dilution with buffer and injection into an HPLC system. Anidulafungin served as I.S. for micafungin. The method was fully validated and achieved using an isocratic Prominence Shimadzu HPLC system (Shimadzu, Columbia, MD, USA), which comprised an autosampler (SIL-20AHT), a UV detector (Shimadzu UV SPD-20A), and a pump (LC-20AB) connected to a degasser (Dgu-20A3). The separation of micafungin was performed on a Phenomenex Luna C18 column (250 × 4.6 mm i.d., 5 µm; Phenomenex, CA). The mobile phase comprised 0.1% (w/w) ammonium acetate in water, with pH adjusted to 7.0 with 25% NH3 solution and acetonitrile (70%:30%); the flow rate was 1 mL/min, and micafungin was detected at 273 nm. Data acquisition was achieved using LC Solution chromatographic software version 1.22 SP1 (Shimadzu, Columbia, MD, USA).
Data from patients with and without cancer were comodeled using Monolix 4.4 software (Supplementary File S1). Monolix estimates pharmacokinetic parameters using the stochastic approximation expectation maximization algorithm. In the first step, we developed the base structural model for micafungin by fitting various compartmental models to plasma drug concentrations. The following criteria were followed to select between models: (a) a decrease in the minimum of the objective function value (log-likelihood value); (b) precision of the parameter estimation expressed as RSE (%) and calculated as the ratio between the standard error and final parameter estimate; (c) physiologic plausibility; and (d) GOF plots including observed and predicted concentrations, residuals plot, and visual predictive check.
A covariate model was developed in a stepwise fashion, with forward inclusion based on model selection criteria. First, we plotted the empirical Bayesian estimates vs. covariates to screen for potentially significant correlations. Next, we performed a stepwise regression analysis to test the significant covariates identified in step 1, using the −2 log-likelihood ratio test. Age, body weight, height, BMI, sex, serum creatinine, creatinine clearance, sequential organ failure assessment score, and levels of AST, alanine transaminase, total bilirubin, and albumin were tested as covariates.
GOF was assessed using the log-likelihood criterion during model building. Plots of model-based individual and population predictions vs. the observed concentrations were performed for model assessment. A predicted–corrected visual predictive check using 1000 simulations was constructed to study the performance of the final model. […]

[1] = cited from earlier work
Description: Micafungin is metabolized in the liver by catechol O-methyltransferase, arylsulfatase, and hydroxylation. Only 1% of the unchanged drug is excreted through the kidneys. […] The elimination pharmacokinetics of micafungin in patients with advanced hepatic insufficiency are not fully understood. […] We described the plasma concentration-time curve of micafungin using a two-compartment model, similar to that described in previous studies. […] Overall, there were no differences in the ...

[2] = patients with cancer (n = 10), 100 mg/day i.v.
[3] = patients without cancer (n = 9), 100-150 mg/day i.v.

CCCCCOc1ccc(-c2cc(-c3ccc(C(=O)N[C@H]4C[C@@H](O)[C@@H](O)NC(=O)[C@@H]5[C@@H](O)[C@@H](C)CN5C(=O)[C@H]([C@H](O)CC(N)=O)NC(=O)[C@H]([C@H](O)[C@@H](O)c5ccc(O)c(OS(=O)(=O)O)c5)NC(=O)[C@@H]5C[C@@H](O)CN5C(=O)[C@H]([C@@H](C)O)NC4=O)cc3)no2)cc1 [micafungin] (X1-[Orn(4R-OH,5R-OH)]T[Hyp][hTyr(3S-OH,4S-OH,3'-OSO3H)][Gln(3R-OH)][Pro(3S-OH,4S-Me)]; lactam 1-C)
clearance (clinical; patients with cancer (n = 10), 100 mg/day i.v. infusion over 60 min): 20 mL/min | clearance (clinical; patients without cancer (n = 9), 100-150 mg/day i.v. infusion over 60 min): 10 mL/min | Q (intercompartmental clearance) (clinical; [2]): 0.144 L/h | V1 (volume of the central compartment) (clinical; [2]): 10.7 L | V2 (volume of the peripheral compartment) (clinical; [2]): 3.5 L | Q (intercompartmental clearance) (clinical; [3]): 0.188 L/h | V1 (volume of the central compartment) (clinical; [3]): 12 L | V2 (volume of the peripheral compartment) (clinical; [3]): 2.77 L | terminal half-life ([1]; adults): approximately 15 h | unchanged drug excreted through the kidneys [1]: 1%
